Assay results taken from PMC103669 (BMC Pharmacology, 2002).

Tests used:
[1] = molecular target: T1, opossum alpha-2C adrenergic receptor (Didelphis virginiana, UniProt P35405); experiment: [3H]rauwolscine saturation binding, CHO membranes, filtration
T1 sequence (P35405 1-469): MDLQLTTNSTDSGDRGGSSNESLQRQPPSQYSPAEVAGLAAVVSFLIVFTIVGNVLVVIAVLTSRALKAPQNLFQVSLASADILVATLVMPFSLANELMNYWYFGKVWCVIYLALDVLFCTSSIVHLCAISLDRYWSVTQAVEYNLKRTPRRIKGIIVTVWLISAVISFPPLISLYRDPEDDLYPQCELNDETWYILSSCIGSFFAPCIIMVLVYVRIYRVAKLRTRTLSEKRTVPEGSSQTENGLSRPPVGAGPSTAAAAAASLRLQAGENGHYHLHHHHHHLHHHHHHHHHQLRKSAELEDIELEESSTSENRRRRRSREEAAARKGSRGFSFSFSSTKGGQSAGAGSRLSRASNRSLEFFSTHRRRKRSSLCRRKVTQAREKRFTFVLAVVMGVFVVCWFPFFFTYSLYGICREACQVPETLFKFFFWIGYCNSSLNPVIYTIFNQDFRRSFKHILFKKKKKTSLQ

[2] = molecular target: opossum alpha-2C adrenergic receptor (Didelphis virginiana, UniProt P35405, S312A/T311V); experiment: biochemical
opossum alpha-2C adrenergic receptor (Didelphis virginiana, UniProt P35405, S312A/T311V), sequence (P35405 whole entry T311V/S312A): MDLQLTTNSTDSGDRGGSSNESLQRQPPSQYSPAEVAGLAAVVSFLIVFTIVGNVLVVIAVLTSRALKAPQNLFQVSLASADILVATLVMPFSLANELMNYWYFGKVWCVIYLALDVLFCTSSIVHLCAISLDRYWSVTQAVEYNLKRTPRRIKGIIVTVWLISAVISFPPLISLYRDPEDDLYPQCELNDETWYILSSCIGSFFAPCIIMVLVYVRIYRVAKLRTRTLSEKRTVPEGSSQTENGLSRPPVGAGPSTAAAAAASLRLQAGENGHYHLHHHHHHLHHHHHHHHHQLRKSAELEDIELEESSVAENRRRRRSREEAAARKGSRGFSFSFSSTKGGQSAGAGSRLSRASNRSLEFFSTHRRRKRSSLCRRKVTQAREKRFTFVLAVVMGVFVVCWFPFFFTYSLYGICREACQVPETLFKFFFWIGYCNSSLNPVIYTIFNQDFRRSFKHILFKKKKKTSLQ

[3] = molecular target: T2, opossum alpha-2C adrenergic receptor (Didelphis virginiana, UniProt P35405, S309A/S310A/S312A/T311V); experiment: biochemical
T2 sequence (P35405 whole entry S309A/S310A/T311V/S312A): as the sequence (P35405 whole entry T311V/S312A) above, with S309A, S310A counted along it

[4] = molecular target: T2, opossum alpha-2C adrenergic receptor; experiment: biochemical; remark: listed apart in the source

Row | Compound | Kd [1] | Kd [2] | Kd [3] | Ki [4]
1 | COC(=O)[C@H]1[C@H]2C[C@H]3c4[nH]c5ccccc5c4CCN3C[C@H]2CC[C@@H]1O [[^3H]rauwolscine] | 0.113 ± 0.008 nM | 0.105 ± 0.005 nM | 0.118 ± 0.012 nM | –
2 | NC[C@H](O)c1ccc(O)c(O)c1 [norepinephrine] | – | – | – | 71 ± 5 nM
